Reference: ChEMBL document CHEMBL3352292, “i-Motif DNA: structure, stability and targeting with ligands” (Bioorg Med Chem, 2014)

Key:
[1] = Binding affinity to d(C5T3)3C5 i-Motif DNA (unknown origin) by UV titration method
[2] = Binding affinity to human telomeric G-quadruplex DNA
[3] = Binding affinity to human telomeric duplex DNA
[4] = species on record: Homo sapiens; test: Increase in thermal stability of human telomeric i-Motif DNA assessed as change in melting temperature at pH 5.5
[5] = species on record: Homo sapiens; test: Binding to human telomeric i-Motif DNA by fluorescence titration method
[6] = species on record: Homo sapiens; test: Binding affinity to human telomeric i-Motif DNA assessed as change in melting temperature at pH 6.8 by FRET assay
[7] = species on record: Homo sapiens; test: Binding affinity to human telomeric G-quadruplex DNA assessed as change in melting temperature by FRET assay
[8] = Binding affinity to bcl-2 i-Motif DNA (unknown origin) by fluorescence based assay
[9] = Reduction in bcl-2 expression in human GRANTA-519 cells xenografted in mouse; format: functional; details: dose or concentration not given here
[10] = Antitumor activity against human GRANTA-519 cells xenografted in mouse assessed as inhibition of tumor growth co-administered with etoposide; format: functional

SMILES	Kd [2]	Kd [3]	ΔTm [4]	Kd [5]	other results
CN(C)c1ccc(C(=C2C=CC(=[N+](C)C)C=C2)c2ccc(N(C)C)cc2)cc1 [GENTIAN VIOLET]					Kd [1]: 830 nM
CN(C)CCOc1ccc(NC(=O)c2ccc3ccc4ccc(C(=O)Nc5ccc(OCCN(C)C)cc5)nc4c3n2)cc1	1600 nM	6700 nM	7 °C	4000 nM	
c1cc2nc3ccc4cc3cc2cc1CNCCNCCNCc1ccc2nc3ccc(cc3cc2c1)CNCCNCCNC4					ΔTm [6]: 33 °C; ΔTm [7]: 15 °C
O=C(Nc1ccc(OCCN2CCCC2)cc1)c1ccc2ccc3ccc(C(=O)Nc4ccc(OCCN5CCCC5)cc4)nc3c2n1	1600 nM	6700 nM	7 °C	4000 nM	
CC(C)CC[C@H](C)[C@@H]1CC[C@H]2[C@@H]3CC[C@H]4C[C@@H](NC(=O)C[N+]5(C)CCCCC5)CC[C@]4(C)[C@H]3CC[C@@]21C					Kd [8]: 490 nM
O=C(Nc1ccc(OCCN2CCCCC2)cc1)c1ccc2ccc3ccc(C(=O)Nc4ccc(OCCN5CCCCC5)cc4)nc3c2n1	1600 nM	6700 nM	7 °C	4000 nM	
COc1ccc2c(c1)CN([C@@H](C)[C@H]1CC[C@H]3[C@@H]4CC[C@H]5C[C@@H](O)CC[C@]5(C)[C@H]4CC[C@]13C)CO2					Kd [8]: 1010 nM; inhibition [9]: 20%; TGI [10]: 65%
